Data set [1] can be described thus: Solubility of reaction components and additives in MS. Type of data set: physicochemical.
Data set [2] in a line: Solubility of catalysts in MS and co-solvents.

Consider `CC(C)(c1ccccc1)c1ccc(O)cc1` [Para-Cumyl Phenol], for which the “Stable at T (room) for:” value in data set [1] is over 24 h. Moreover, the “Solubility in MS, T (room)” value in data set [1] (4.1 wt %, 0.5 g in 10 ml MS) is listed as “Dissolved”; in data set [1] (17.5 wt %, 2.5 g in 10 ml MS), “Dissolved”; in data set [1] (29.7 wt %, 5 g in 10 ml MS), “Dissolved”.

In the case of `CC(=O)[O-].CCCC[N+](CCCC)(CCCC)CCCC` [Tetra Butyl Ammonium Acetate], in data set [2] (2.47 wt %, 10.0 ml MS, no co-solvent), the “Stable at T (room) for:” value was over 72 h.

Regarding `Oc1cccc(O)c1` [Resorcinol], the “Stable at T (room) for:” value in data set [1] (solution in MS, 0.8 wt %) is over 48 h; in data set [1] (solution in MS, 7.8 wt %) it was over 24 h.

Regarding `O[C@@H]1CO[C@H]2[C@@H]1OC[C@@H]2O` [Isosorbide, 1,4:3,6-dianhydro-D-sorbitol], the “Solubility in MS, T (room)” value in data set [1] (0.8 wt %, 0.1 g in 10 ml MS) is listed as “Dissolved”; in data set [1] (4.1 wt %, 0.5 g in 10 ml MS), “Dissolved”. Further, the “Stable at T (room) for:” value in data set [1] (solution in MS, 0.8 wt %) was over 48 h; in data set [1] (solution in MS, 4.1 wt %), over 24 h.

For the compound `COC(=O)c1ccccc1OC(=O)Oc1ccccc1C(=O)OC` [BMSC, bismethylsalicylcarbonate], the “Solubility in MS, T (90° C.)” value in data set [1] (4.1 wt %, 0.5 g in 10 ml MS) was “Dissolved”. Further, the “Solubility in MS, T (100° C.)” value in data set [1] (17.5 wt %, 2.5 g in 10 ml MS) is given as “Dissolved”. Further, the “Stable at T (room) for:” value was over 24 h in data set [1] (solution in MS, 4.1 wt %) and over 24 h in data set [1] (solution in MS, 17.5 wt %).

Take `CC(C)(C)c1ccc(OP(Oc2ccc(C(C)(C)C)cc2C(C)(C)C)Oc2ccc(C(C)(C)C)cc2C(C)(C)C)c(C(C)(C)C)c1` [Irgafos 168]: the “Solubility in MS, T (room)” value in data set [1] (0.8 wt %, 0.1 g in 10 ml MS) is recorded as “Dissolved”. The “Solubility in MS, T (50° C.)” value in data set [1] (4.1 wt %, 0.5 g in 10 ml MS) was “Dissolved”. Besides, the “Stable at T (room) for:” value in data set [1] (solution in MS, 0.8 wt %) was 5 h; in data set [1] (solution in MS, 4.1 wt %), under 2 h.

As to `O=C(Oc1ccccc1)Oc1ccccc1` [Diphenyl Carbonate], the “Solubility in MS, T (90° C.)” value in data set [1] (4.1 wt %, 0.5 g in 10 ml MS) was “Dissolved”. Also, the “Stable at T (room) for:” value in data set [1] (solution in MS, 4.1 wt %) was over 24 h.

For the compound `CC(=O)[O-].[Cs+]` [CS-Acetate], in data set [2] (0.79 wt %, 0.1 g, 10.0 ml MS + 1.0 ml MeOH), the “Solubility of catalyst, T (room)” value is on record as “Dissolved”. The “Stable at T (room) for:” value in data set [2] (0.79 wt %, 10.0 ml MS + 1.0 ml MeOH) is over 24 h.

In the case of `O=C(O)CCCCCCCCCCCCC(=O)O` [1,12-Dodecanedicarboxylic acid], the “Solubility in MS, T (90° C.)” value in data set [1] (0.8 wt %, 0.1 g in 10 ml MS) was “Dissolved”. The “Stable at T (room) for:” value in data set [1] (solution in MS, 0.8 wt %, result in words) is reported as “Crystalized”.

As for `Cc1cc(O)ccc1O` [Methyl hydroquinone], in data set [1] (0.8 wt %, 0.1 g in 10 ml MS), the “Solubility in MS, T (room)” value is reported as “Dissolved”. Besides, the “Solubility in MS, T (90° C.)” value in data set [1] (7.8 wt %, 1 g in 10 ml MS) was “Dissolved”.
